Reference: article PMC9780888, “4-Isobutylmethcathinone—A Novel Synthetic Cathinone with High In Vitro Cytotoxicity and Strong Receptor Binding Preference of Enantiomers” (Pharmaceuticals, 2022)

Tests used:
Type in all cases: cell-based
dopamine receptor DAR1 = molecular target: T1, dopamine receptor DAR1 (Homo sapiens, UniProt P21728); experiment: PRESTO-Tango β-arrestin 2 recruitment assay, DAR1; conditions: HTLA cells
T1 construct: host or cells: HTLA (HEK 293-derived)
Source text: However, binding to a specific receptor/transporter and, thus, the mechanism of action of a given cathinone always depends on the specific structure of the evaluated compound [37]. In this study, the binding activity of IBMcat and its enantiomers was verified by PRESTO-Tango (parallel receptor expression and screening via transcriptional output, with transcriptional activation following arrestin-2 translocation) assay using the HTLA cell line stably producing β-arrestin-2 in a fusion with TEV and luciferase production driven by tTA. […] The transcription factor then translocates to the cell nucleus, in which it triggers the transcription of the target gene for luciferase production which can be determined by the light emitted from luciferin conversion to oxyluciferin. Here, the pronounced luminescence was recorded for all DAR1-4 types in HTLA cells treated with IBMCat and its enantiomers (Figure 8). […]
(§1) The transfected HTLA cells were incubated for 24 h, and then 1 × 10^4 cells were seeded per well of a white 96-well clear bottom plate (Brand, Germany) in 40 μL of DMEM with 1% charcoal-stripped FBS (Thermo Fisher Scientific, USA). […] After 5 min., the luminescence was measured using a multi-mode microplate reader SpectraMax iD5 (Molecular Devices, San Jose, CA, USA) measuring the entire wavelength spectrum. All samples were measured in quadruplicates. […]

[1] = molecular target: T2, ADRA2B (alpha-2B adrenergic receptor) (Homo sapiens, UniProt P18089); experiment: PRESTO-Tango β-arrestin 2 recruitment assay, ADRA2B; conditions: 500 nM
T2 construct: Tango construct (TEV cleavage site and tTA, as described for the dopamine receptor plasmids); host or cells: HTLA (HEK 293-derived)
Method: (§2) The HTLA cell line was used for the PRESTO-Tango β-arrestin recruitment assay. The HTLA cells were provided as a gift from the laboratory of Bryan Roth (Roth Lab, USA). It is a human cell line derived from human embryonic kidney cells (HEK 293) stably expressing β-arrestin in a fusion with the tobacco etch virus protease (TEV) protease and the luciferase gene under the control of the transcription factor tetracycline transcriptional activator (tTA). The HTLA cells were cultured under standard incubation conditions (37 °C, 5% CO2, 95% humidity) in DMEM with 10% FBS. […]
as §1, with “quadruplicates. The data were evaluated by Prism 7 software (GraphPad, […], CA, USA).” for “quadruplicates.”
(§3) The error bar represents standard deviation from four replicates. The data were processed and evaluated by GraphPad Prism Software using one-way ANOVA: * p<0.05; ** p<0.01; *** […]

[2] = molecular target: T3, HTR2A (5-hydroxytryptamine receptor 2A) (Homo sapiens, UniProt P28223); experiment: PRESTO-Tango β-arrestin 2 recruitment assay, HTR2A; conditions: 0-500 nM
T3 construct: Tango construct (TEV cleavage site and tTA, as described for the dopamine receptor plasmids); host or cells: HTLA (HEK 293-derived)
Method: as §2
(§4) The transfected HTLA cells were incubated for 24 h, and then 1 × 10^4 cells were seeded per well of a white 96-well clear bottom plate (Brand, Germany) in 40 μL of DMEM with 1% charcoal-stripped FBS (Thermo Fisher Scientific, USA). […] After 5 min., the luminescence was measured using a multi-mode microplate reader SpectraMax iD5 (Molecular Devices, San Jose, CA, USA) measuring the entire wavelength spectrum. All samples were measured in quadruplicates. The data were evaluated by Prism 7 software (GraphPad, San Jose, CA, USA).
Figure S13: β-arrestin 2 recruitment PRESTO-Tango assay: activation of the serotonin receptors. […] The data were processed and evaluated by GraphPad Prism Software using one-way […]

[3] = molecular target: T4, ADRB1 (beta-1 adrenergic receptor) (Homo sapiens, UniProt P08588); experiment: PRESTO-Tango β-arrestin 2 recruitment assay, ADRB1; conditions: ADRB1, 500 nM
T4 construct: Tango construct (TEV cleavage site and tTA, as described for the dopamine receptor plasmids); host or cells: HTLA (HEK 293-derived)
Method: as §2
as §4, with “CA, USA). […]” for “CA, USA).”
as §3

T1 sequence (P21728 whole entry): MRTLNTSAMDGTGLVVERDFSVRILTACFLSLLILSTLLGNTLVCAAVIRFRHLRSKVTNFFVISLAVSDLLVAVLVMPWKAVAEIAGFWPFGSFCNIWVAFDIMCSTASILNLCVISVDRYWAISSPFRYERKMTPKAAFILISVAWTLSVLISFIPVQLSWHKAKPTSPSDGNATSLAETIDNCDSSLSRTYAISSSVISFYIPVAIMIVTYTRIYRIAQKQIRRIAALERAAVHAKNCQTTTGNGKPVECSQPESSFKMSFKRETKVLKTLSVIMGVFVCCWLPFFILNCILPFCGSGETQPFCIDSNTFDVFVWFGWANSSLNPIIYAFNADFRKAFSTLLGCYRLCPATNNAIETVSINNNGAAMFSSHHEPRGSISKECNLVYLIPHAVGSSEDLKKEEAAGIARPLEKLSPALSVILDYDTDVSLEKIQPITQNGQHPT
T2 sequence (P18089 whole entry): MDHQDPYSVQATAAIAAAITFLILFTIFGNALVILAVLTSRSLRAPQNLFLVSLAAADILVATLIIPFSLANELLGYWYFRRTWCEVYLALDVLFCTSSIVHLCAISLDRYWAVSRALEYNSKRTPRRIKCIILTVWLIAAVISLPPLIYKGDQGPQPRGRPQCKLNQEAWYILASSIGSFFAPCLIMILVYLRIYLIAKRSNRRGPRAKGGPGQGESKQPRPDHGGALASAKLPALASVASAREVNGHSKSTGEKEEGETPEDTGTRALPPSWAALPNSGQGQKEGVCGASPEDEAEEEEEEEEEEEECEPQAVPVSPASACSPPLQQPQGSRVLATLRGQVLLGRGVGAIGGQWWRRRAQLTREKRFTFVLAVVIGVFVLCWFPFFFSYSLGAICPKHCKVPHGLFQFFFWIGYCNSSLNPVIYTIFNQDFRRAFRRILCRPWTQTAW
T3 sequence (P28223 whole entry): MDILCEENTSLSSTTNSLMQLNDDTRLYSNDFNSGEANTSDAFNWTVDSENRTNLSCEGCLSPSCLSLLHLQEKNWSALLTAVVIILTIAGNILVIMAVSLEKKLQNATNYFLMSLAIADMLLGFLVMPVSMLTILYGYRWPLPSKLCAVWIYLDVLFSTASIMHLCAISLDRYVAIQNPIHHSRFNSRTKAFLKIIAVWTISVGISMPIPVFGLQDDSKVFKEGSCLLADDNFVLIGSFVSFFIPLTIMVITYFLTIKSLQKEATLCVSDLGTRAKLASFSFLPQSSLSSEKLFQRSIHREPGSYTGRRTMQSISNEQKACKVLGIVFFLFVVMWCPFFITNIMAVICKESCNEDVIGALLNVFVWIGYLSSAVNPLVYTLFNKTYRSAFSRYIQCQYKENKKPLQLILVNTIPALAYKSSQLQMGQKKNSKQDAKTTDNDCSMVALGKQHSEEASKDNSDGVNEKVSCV
T4 sequence (P08588 whole entry): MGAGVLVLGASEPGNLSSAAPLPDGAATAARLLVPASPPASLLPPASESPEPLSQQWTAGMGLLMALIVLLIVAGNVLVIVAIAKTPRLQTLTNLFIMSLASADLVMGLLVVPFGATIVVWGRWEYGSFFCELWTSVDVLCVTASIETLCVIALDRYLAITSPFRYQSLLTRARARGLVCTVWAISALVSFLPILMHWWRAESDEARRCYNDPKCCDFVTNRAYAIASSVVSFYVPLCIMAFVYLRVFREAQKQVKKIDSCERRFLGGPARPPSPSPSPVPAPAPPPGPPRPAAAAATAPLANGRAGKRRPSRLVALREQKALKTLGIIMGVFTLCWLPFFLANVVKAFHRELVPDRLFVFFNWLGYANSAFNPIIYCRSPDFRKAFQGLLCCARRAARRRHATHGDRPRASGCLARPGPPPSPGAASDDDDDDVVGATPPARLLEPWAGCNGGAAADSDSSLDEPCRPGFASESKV

SMILES: CNC(C)C(=O)c1ccc(CC(C)C)cc1.Cl (centres unmarked) [IBMcat, 4-isobutylmethcathinone hydrochloride]
- effect on DAR1 (increase in RLU with increasing concentration) (dopamine receptor DAR1; 0-500 nM): acted as agonists
- concentration from which no further increase in RLU was detected (maximum effective concentration) (dopamine receptor DAR1; DAR1): 10 nM
- increase in RLU compared to untreated control [1]: 1.5 fold
- agonistic activity for HTR2A [2]: did not exhibit any agonistic activity
- increase in the luminescence signal [3]: 3 fold
